Measurements as given in patent US20220064260A1, “ISOLATED MHC-DERIVED HUMAN PEPTIDES AND USES THEREOF FOR STIMULATING AND ACTIVATING THE SUPPRESSIVE FUNCTION OF CD8+CD45RCLOW TREGS” (INSERM (INSTITUT NATIONAL DE LA SANTÉ ET DE LA RECHERCHE …, priority 2018, published 2022).

Tests used:
[1] = test system: CD8+CD45RClow Tregs; assay: Peptide stimulation assay (CD8+CD45RClow Treg activation by CD25 and CD69 expression); assay type: cell-based, human; settings: 5-days culture, syngeneic CD8+CD45RClow Tregs and autologous HLA-A2+ pDCs, IL-2 and CpG ODN, peptide 120 μg/ml, versus control peptide
Protocol: Peptide Stimulation Assay
CD8^+ CD45RC^low Treg cells and autologous pDCs from the same healthy HLA-A2^+ donor were co-cultured in serum-free Texmacs medium (Miltenyi Biotec) supplemented with IL-2 (25 U/ml, Proleukin, Novartis), CpG ODN 2006 (0.5 μM) and the different synthesized peptides (120 μg/ml) at a ratio 4:1 of Tregs:pDCs for 5 days. CD8^+CD45RC^low Treg activation was analyzed based on expression of CD69 and CD25 markers. As negative control and in order to normalize the results, a negative peptide was used (ALIAPVHAV). Dapi was used as viability marker. As a positive control, CD8^+ CD45RC^low Tregs were stimulated with anti-CD3 (OKT3, 1 μg/ml) and anti-CD28 mAbs (clone: CD28.2; 1 μg/ml). Results were analyzed using the FACS Canto II cytometer (BD Biosciences) and Flowjo software (Tree Star, Inc. USA, version 10).
For the peptide activation test, a non-parametric Wilcoxon signed-rank test, comparing column median to a hypothetical value of 1.0, was done. Analyses were made with GraphPad Prism 7 software (GraphPad).
Four 16aa peptides were designed from four random human MHC class II alleles based on the sequences of the Du51 peptide (NREEYARFDSDVGEYR) and the overlapping 12-mer peptide Bu31-10 (YLRYDSDVGEYR) both bearing the SDVGEYR motif at C-term end (FIG. 1): Hpep1 (NQEESVRFDSDVGEFR-SEQ ID NO: 1), Hpep2 (NREEYARFDSDVGEFR-SEQ ID NO: 2), Hpep3 (NREEYARFDSDVGVYR-SEQ ID NO: 3) and Hpep4 (NREEYVRFDSDVGEYR-SEQ ID NO: 4). We individually tested these peptides differing at positions 2, 5, 6, 14 or 15 in a 5-days culture assay using and syngeneic CD8^+CD45RC^low Tregs and autologous HLA-A2^+ pDCs from the same individuals in presence of interleukin-2 (IL-2) and CpG oligodeoxynucleotides (or CpG ODN) in serum free Texmacs medium (FIG. 2). […] These three peptides share the conserved SDVGE-X-R (SEQ ID NO: 13) 7aa motif while Hpep3 has in addition a valine (V) in place of the glutamic acid (E) at position 14 of the peptide, probably impacting TCR recognition.

[2] = test system: CD4+CD25- T cells; assay: Suppression assay (proliferation of CFSE-labeled CD4+CD25- Teffs stimulated with allogeneic APCs); assay type: cell-based, human; settings: Tregs expanded 14 days, co-cultured 5 days at 1:1:1 with syngeneic CD4+CD25- T cells and pooled allogeneic APCs; compared to fresh Tregs
Protocol: CFSE-labeled CD4^+ CD25^− Teffs and CD8^+ CD45RC^low Tregs from the same healthy volunteer (HLA-A2^+) were co-cultured with a pool of allogeneic APCs from 3 different healthy donors (HLA-A2^−) in RPMI1640 medium supplemented with 5% human AB serum. Culture was done at 1:1:1 ratio (where 1=5×10^4 cells/well) for 5 days in triplicate in a V-bottom 96 well plate. Proliferation of CD4^+CD25^− responder T cells was analyzed by flow cytometry (FACS Canto II BD Biosciences TM) by gating on CD3^+CD4^+ living cells (DAPI negative) and using Flowjo software (Tree Star, Inc. USA, version 10).

[3] = test system: CD8+CD45RClow Tregs; assay: Expansion in vitro of human CD8+CD45RClow Tregs; assay type: cell-based; settings: 14 days culture with autologous APCs, IL-2, IL-15 and CpG ODN, versus day 0
Protocol: Expansion In Vitro of Human CD8^+CD45RC^low Tregs
5×10^5 CD8^+CD45RC^low Tregs and 2×10^6 autologous APCs from HLA-A2^+ healthy donors were seeded in a 24 well plate in Texmacs Medium (Miltenyi Biotec), supplemented with penicillin (100 U/ml), streptomycin (100 μg/ml), rhlL-2 (1000 U/ml, Proleukin, Novartis), rhIL-15 (10 ng/ml, Miltenyi Biotec), CpG (0.5 μM), and the different peptides (120 μg/ml) derived from HLA-II molecule (GenScript). As negative control, a negative irrelevant peptide (ALIAPVHAV) was used. As a positive control, CD8^+CD45RC^low Tregs were stimulated with plate-coated anti-CD3 (clone: OKT3, 1 μg/ml) mAb and soluble anti-CD28 mAb (clone: CD28.2; 1 μg/ml). At day 7, Tregs were counted and re-expanded. Cytokines were freshly added twice a week. Finally, at day 14, cells were used for experiments.
To determine whether CD8^+ CD45RC^low Tregs could be expanded using this MHC-II derived peptide, an expansion protocol was set up using sorted CD8^+CD45RC^low/− Tregs and APCs from the same individual with the Hpep2 peptide in presence of IL-2, IL-15 and CpG ODN and compared to a polyclonal stimulation (anti-CD3/28) in similar conditions (FIG. 4).

[4] = test system: CD8+CD45RClow Tregs; assay: Extracellular and intracellular stainings of expanded Tregs (flow cytometry); assay type: cell-based, human; settings: 14 days expansion, Hpep2 versus anti-CD3/28 expanded Tregs
Protocol: Extracellular and Intracellular Stainings
For the analysis of GITR (clone: DT5D3, Miltenyi Biotec), Foxp3 (clone:259D/C7, BD Biosciences), IL-10 (clone: JES3-9D7 , BD Biosciences), IL-34 (clone: IC5265P, R&D), TGFβ1 (clone: TW4-9E7, BD Biosciences) and IFNγ (clone: B27, BD Biosciences), CD8^+CD45RC^low Treg cells were stimulated with PMA (50 ng/ml) and ionomycin (1 μg/ml) for 5 h in presence of Brefeldin A (10 μg/ml) for the last 4 hours in Texmacs medium (Miltenyi Biotec). In order to select viable cells, Fixable Viability Dye eF506 (ThermoFisher Scientific) was used as viability marker. Fc receptors were blocked before staining (BD Biosciences) and cells were permeabilized with Fix/Perm kit (Ebiociences) for intracellular staining Cell phenotype was analyzed by flow cytometry using the LSR II (BD Biosciences, Mountain View, Calif.) and Flowjo software (Tree Star. Inc. USA, version 10).

[5] = test system: allograft; settings: rats treated with the peptide only (WO2015/150492); cited from earlier work

| Sequence | CD25 expression on Tregs [1] | CD69 expression on Tregs [1] | suppressive activity of expanded CD8+CD45RClow Tregs on an allogeneic immune response [2] | total Treg fold expansion [3] [fold] | level of expression of Foxp3, GITR, IL-10, IFNγ and IL-34 in expanded CD8+CD45RClow Tregs [4] | allograft tolerance in recipient rats [5] |
| --- | --- | --- | --- | --- | --- | --- |
| NREEYARFDSDVGEFR (listed as Homo sapiens) [Hpep2, 16aa peptide designed from a human MHC class II allele] | upregulated | upregulated | efficient at suppressing an allogeneic immune response | 10 | no significant differences |  |
| NQEESVRFDSDVGEFR (listed as Homo sapiens) [Hpep1, 16aa peptide designed from a human MHC class II allele] | upregulated | upregulated |  |  |  |  |
| NREEYVRFDSDVGEYR (listed as Homo sapiens) [Hpep4, 16aa peptide designed from a human MHC class II allele] | upregulated | upregulated |  |  |  |  |
| NREEYARFDSDVGEYR [Du51, dominant MHC class II-derived antigen recognized by TCR-biased CD8+ Tregs in rats (WO2015/150492)] |  |  |  |  |  | donor-specific allograft tolerance induction |
